Test results reported in patent US12458627B2, “Autotaxin inhibitors and uses thereof” (DF 2024 IP Acquisition, LLC, priority 2015, dated 2025).

Assays:
human autotaxin = human autotaxin (Homo sapiens (Human), UniProt Q13822); assay: Human autotaxin assay; format: biochemical; settings: concentrated conditioned media from Hep3B cells; LPC substrate, choline release
ENPP7 = ENPP7 (Homo sapiens (Human), UniProt Q6UWV6); assay: In vitro ENPP7 inhibition assay; format: biochemical
[1] = tested on: C57B16/J male mice fed a high fat diet; assay: Glucose tolerance in mice fed a high fat diet; format: in vivo, mouse; settings: 15 mg/kg twice daily for two days prior to sampling and once on the day of sampling
Description: C57B16/J male mice are fed a normal diet until 6-10 weeks of age. […] For determination of blood glucose, mice are administered test compound orally in 0.5% methocel once or twice daily for several days prior to the glucose challenge. On the day of the glucose tolerance test (GTT) mice are fasted for 6-8 hours and a last dose of test compound administered orally 1-3 hours before the intraperitoneal (i.p.) injection of 1 g/kg D-glucose (Sigma). Blood from the tail vein is sampled before the glucose load (baseline glucose) and every 15-30 min over the next 120 min after the glucose challenge to monitor blood glucose concentration. Blood glucose is quantified using a glucose meter (Accu-Chek, Roche Diagnostics or AlphaTRAK, Abbott Animal Health) and plotted vs. time. Total blood glucose area under the curve (AUC) after the i.p. glucose challenge is calculated from the time plot using GraphPad Prism6.

CDAA/HFD fed mice = assay: Mouse CDAA/HFD model of liver fibrosis; format: in vivo
Description: Mice are fed a choline deficient diet supplemented with 0.1% methionine and 60% kCal fat (CDAA/HFD) for 12-14 weeks. Mice receive 1, 3, 10, or 30 mpk of autotaxin inhibitor test compound or vehicle starting at the beginning of week 6 after feeding (therapeutically). The following liver enzymes are measured weekly: aspartate transaminase, alkaline phosphatase and bilirubin. At the end of the study, mice are sacrificed and the liver harvested and frozen at −80° C. for the biochemical analysis of liver fibrosis or fixed in neutral-buffered formalin for histological assessment of liver fibrosis. For the biochemical assessment of liver fibrosis, liver tissue homogenates are analyzed for collagen concentration using a hydroxyproline assay. For the histological assessment of liver fibrosis, fixed liver tissue is stained with Picrosirius Red (PSR) stain and severity of liver fibrosis scored using light microscopy. After qualitative scoring of liver fibrosis, quantitation of fibrosis was determined using whole slide images captured at 20× magnification and calculating the percentage of the liver section that was PSR-positive using Indica Labs' Halo® area quantification image analysis software.

ENPP6 = ENPP6 (Homo sapiens (Human), UniProt Q6UWR7); assay: In vitro ENPP6 inhibition assay; format: biochemical
Chain of ENPP6 (Q6UWR7 23-440, species assumed): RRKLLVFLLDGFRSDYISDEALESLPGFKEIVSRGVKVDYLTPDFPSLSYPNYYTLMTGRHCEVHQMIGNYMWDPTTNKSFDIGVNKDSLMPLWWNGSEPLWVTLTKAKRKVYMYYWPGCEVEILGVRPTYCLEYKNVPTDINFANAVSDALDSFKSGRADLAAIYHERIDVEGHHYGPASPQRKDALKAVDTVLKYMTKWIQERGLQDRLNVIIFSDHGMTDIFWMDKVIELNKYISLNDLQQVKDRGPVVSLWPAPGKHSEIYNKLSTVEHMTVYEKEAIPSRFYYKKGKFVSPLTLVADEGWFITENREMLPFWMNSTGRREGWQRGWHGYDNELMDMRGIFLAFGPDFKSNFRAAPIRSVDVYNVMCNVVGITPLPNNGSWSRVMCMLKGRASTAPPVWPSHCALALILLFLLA

[2] = tested on: Female C57BL/6 mice, DSS-induced colitis; assay: Mouse DSS-induced chronic colitis model; format: in vivo; settings: compared to vehicle
Description: Autotaxin inhibitors are dosed at 30, 60 or 100 mpk PO once or twice daily from Day 0 to 63. For a positive control, Cyclosporin A (CsA) is dosed at 25 mpk on Days 1-7, 22-28, and 43-49. Mouse body weight, stool consistency, bleeding and overall Disease Activity Index (DAI) is recorded daily. After 64 days, mouse colons are removed and their length and weights recorded. Colonic sections are stained with hematoxylin and eosin stain (H&E stain) and scored based on inflammatory cell infiltration and tissue damage. Colonic sections are also stained with trichrome and scored for fibrosis.

[3] = tested on: Male Wistar rats, DNBS-induced colitis; assay: Rat DNBS-induced acute colitis model; format: in vivo
Description: Male Wistar rats weighing 150-160 g are intracolonically administered 0.5 ml of 50 mg/ml DNBS in 30% ethanol on Day 1 or vehicle control. Autotaxin inhibitors are dosed at 5 mpk in 0.5% MC once daily from Day 0 to Day 6. Sulfasalazine is dosed at 300 mpk in 0.5% CMC-Na from Day 1 to Day 7. The rats are monitored for body weight and stool consistency daily. At study termination, colon length, colon weight, ulcer area and Masson's trichrome staining are assessed.

ENPP3 = ENPP3 (Homo sapiens (Human), UniProt O14638); assay: In vitro ENPP3 inhibition assay; format: biochemical
Chain of ENPP3 (O14638 whole entry, species assumed): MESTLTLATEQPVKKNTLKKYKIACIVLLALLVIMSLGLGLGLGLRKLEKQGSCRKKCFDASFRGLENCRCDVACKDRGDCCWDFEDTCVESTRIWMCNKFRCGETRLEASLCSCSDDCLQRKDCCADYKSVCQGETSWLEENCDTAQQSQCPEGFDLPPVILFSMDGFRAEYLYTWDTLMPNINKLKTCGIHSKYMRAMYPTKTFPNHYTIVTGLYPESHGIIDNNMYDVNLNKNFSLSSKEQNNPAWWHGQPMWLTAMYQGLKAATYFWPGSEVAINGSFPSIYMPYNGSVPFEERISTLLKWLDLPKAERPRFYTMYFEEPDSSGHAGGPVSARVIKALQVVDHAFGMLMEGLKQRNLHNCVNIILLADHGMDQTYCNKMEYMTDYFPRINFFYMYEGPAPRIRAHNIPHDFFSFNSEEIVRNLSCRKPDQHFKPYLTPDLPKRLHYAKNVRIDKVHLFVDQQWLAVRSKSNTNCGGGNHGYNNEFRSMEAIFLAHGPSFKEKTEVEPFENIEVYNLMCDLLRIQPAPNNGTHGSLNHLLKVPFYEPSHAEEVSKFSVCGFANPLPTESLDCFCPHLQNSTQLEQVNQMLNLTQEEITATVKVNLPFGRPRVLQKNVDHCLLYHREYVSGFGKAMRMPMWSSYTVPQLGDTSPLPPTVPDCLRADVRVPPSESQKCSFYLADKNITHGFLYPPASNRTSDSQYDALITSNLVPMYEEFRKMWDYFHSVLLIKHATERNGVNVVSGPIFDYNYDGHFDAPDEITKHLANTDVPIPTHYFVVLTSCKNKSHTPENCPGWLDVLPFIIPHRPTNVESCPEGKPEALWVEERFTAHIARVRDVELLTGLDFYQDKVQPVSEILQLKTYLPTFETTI

[4] = tested on: MDA-MB-435S human melanoma line; assay: cells; settings: read-out: IC50 cell migration
Description: The day before the assay, cells are serum-starved overnight in media containing 0.1-0.2% fatty-acid-free BSA. On the day of the assay, the conditioned media is removed from the cells, centrifuged for clarification and set aside. The cells are then harvested by scraping, counted, and pelleted by centrifugation. […] The assays are performed in duplicate using the Neuroprobe 96-well chemotaxis system with 8 m pore size and fibronectin-coated filters. 152 μL cells are added to 8 μL test autotaxin inhibitor compound and incubated for 15 min at 37° C. […] The filters are incubated at 37° C. for 1-24 hours and non-migrated cells removed from the top of the filter by rinsing with PBS and scraping. The filter is air dried then stained before reading the absorbance at 580 nm.

dog = assay: Dog liver toxicity study; format: in vivo
Description: In some embodiments, liver toxicity can be assessed in suitable in vivo assays. In some embodiments, liver toxicity is assessed by monitoring any increases in the levels of liver markers ALT, AST, AlkP and bilirubin.

ENPP1 = ENPP1 (Homo sapiens (Human), UniProt P22413); assay: In vitro ENPP1 inhibition assay; format: biochemical
Chain of ENPP1 (P22413 whole entry, species assumed): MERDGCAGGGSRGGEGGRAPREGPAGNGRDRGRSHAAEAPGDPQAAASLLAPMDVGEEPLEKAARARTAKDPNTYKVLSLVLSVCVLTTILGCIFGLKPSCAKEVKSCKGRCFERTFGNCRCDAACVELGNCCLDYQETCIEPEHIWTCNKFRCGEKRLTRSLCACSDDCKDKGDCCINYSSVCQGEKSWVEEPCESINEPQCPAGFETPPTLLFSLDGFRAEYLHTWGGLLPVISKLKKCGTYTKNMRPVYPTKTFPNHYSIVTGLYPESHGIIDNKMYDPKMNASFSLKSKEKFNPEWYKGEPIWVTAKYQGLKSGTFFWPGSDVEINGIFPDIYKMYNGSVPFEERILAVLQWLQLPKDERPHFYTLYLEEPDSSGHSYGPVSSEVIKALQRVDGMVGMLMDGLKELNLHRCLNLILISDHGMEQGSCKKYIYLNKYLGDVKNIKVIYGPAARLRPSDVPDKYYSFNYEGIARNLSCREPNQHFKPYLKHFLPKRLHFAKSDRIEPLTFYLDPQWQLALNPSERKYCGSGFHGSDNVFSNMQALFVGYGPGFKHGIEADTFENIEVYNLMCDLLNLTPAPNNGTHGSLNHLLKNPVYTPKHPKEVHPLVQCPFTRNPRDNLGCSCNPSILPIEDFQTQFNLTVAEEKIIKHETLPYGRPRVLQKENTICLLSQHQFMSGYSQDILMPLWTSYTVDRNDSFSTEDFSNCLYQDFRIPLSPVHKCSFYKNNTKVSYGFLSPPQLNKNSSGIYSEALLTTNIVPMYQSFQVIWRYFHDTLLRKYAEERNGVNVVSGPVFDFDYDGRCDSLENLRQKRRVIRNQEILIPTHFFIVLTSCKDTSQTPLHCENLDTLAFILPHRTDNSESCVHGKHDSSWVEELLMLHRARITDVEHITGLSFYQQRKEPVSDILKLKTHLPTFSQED

[5] = 5 mpk once daily, DNBS acute colitis
[6] = 5 mpk once daily, similar to sulfasalazine

Chain of ENPP7 (Q6UWV6 22-458, species assumed): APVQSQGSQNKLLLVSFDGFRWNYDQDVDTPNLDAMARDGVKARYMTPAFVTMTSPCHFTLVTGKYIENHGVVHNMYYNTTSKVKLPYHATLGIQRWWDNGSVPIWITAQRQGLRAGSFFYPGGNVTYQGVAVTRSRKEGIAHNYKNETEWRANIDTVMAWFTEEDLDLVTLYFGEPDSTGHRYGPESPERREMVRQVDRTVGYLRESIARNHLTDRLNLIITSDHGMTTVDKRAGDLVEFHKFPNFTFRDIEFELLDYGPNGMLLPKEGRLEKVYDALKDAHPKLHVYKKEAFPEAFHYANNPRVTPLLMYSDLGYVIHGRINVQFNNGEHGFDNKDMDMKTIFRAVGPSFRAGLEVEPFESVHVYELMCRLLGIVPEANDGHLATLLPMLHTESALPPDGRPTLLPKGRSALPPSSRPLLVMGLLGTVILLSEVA

CCn1cc(-n2c(Cl)c(Sc3cccc(C(=O)O)c3F)c3ccc(Cl)c(F)c32)cn1 [Compound E, 3-((2,6-dichloro-1-(1-ethyl-1H-pyrazol-4-yl)-7-fluoro-1H-indol-3-yl)thio)-2-fluorobenzoic acid]
IC50 (human autotaxin): < 500 nM

O=C1C2Cc3c(n(Cc4ccc(F)cc4)c4ccccc34)CN2C(=O)N1CCC1CCNCC1 (centres unmarked) [Compound C, 4-(2-(6-(4-fluorobenzyl)-1,3-dioxo-5,6,11a-tetrahydro-1H-imidazo[1′,5′:1,6]pyrido[3,4-b]indol-2(3H, 5H, 6H)-yl)ethyl)piperidin-1-ium chloride]
IC50 (human autotaxin): < 500 nM

CCCn1cc(-n2c(Cl)c(Sc3cccc(C(=O)O)c3F)c3ccc(Cl)c(F)c32)cn1 [Compound B, 3-((2,6-dichloro-7-fluoro-1-(1-propyl-1H-pyrazol-4-yl)-1H-indol-3-yl)thio)-2-fluorobenzoic acid]
IC50 (ENPP7): > 10000 nM
baseline glucose [1]: decreased
total blood glucose AUC ([1]; i.p. glucose challenge): decreased
decrease in % PSR positive area (CDAA/HFD fed mice; 10 mpk, liver, CDAA/HFD mice): approximately 35%
liver fibrosis (CDAA/HFD fed mice; 10 mpk, therapeutic dosing, CDAA/HFD mice): significantly reduced
hepatic fibrosis (FIG. 4, percent PSR positive area) (CDAA/HFD fed mice; dosed therapeutically, mouse CDAA/HFD model): attenuate
IC50 (ENPP6): > 10000 nM
colon length [2]: significant increase
colon length, longer than vehicle [2]: at least 30%
effect on colitis by reducing ulcer area ([3]; 5 mpk once daily Day 0 to Day 6, DNBS rats): positive effect
body weight loss [3, 5]: no significant effect
stool consistency [3, 5]: no significant effect
colon weight [3, 6]: reduced
ulcer area [3, 6]: reduced
IC50 (ENPP3): > 10000 nM
IC50 [4]: 15 nM
liver markers (ALT, AST, AlkP and bilirubin) (dog; dog liver toxicity study): did not exhibit the same effects
increases in liver markers ALT, AST, AlkP and bilirubin (dog; dosed at 100 mpk for 5 days): no increases
IC50 (ENPP1): > 10000 nM

CCn1cc(-n2c(Cl)c(Sc3cccc(C(=O)O)n3)c3ccc(Cl)c(F)c32)cn1 [Compound G, 6-((2,6-dichloro-1-(1-ethyl-1H-pyrazol-4-yl)-7-fluoro-1H-indol-3-yl)thio)picolinic acid]
IC50 (human autotaxin): < 500 nM

CCCn1cc(-n2c(Cl)c(Sc3cccc(CC(=O)O)c3F)c3ccc(Cl)c(F)c32)cn1 [Compound H, 2-(3-((2,6-dichloro-7-fluoro-1-(1-propyl-1H-pyrazol-4-yl)-1H-indol-3-yl)thio)-2-fluorophenyl)acetic acid]
IC50 (human autotaxin): < 500 nM

O=C1C2Cc3c(n(Cc4ccc(F)cc4)c4ccccc34)CN2C(=O)N1CCN1CCNCC1 (centres unmarked) [Compound D, 4-(2-(6-(4-fluorobenzyl)-1,3-dioxo-5,6,11a-tetrahydro-1H-imidazo[1′,5′:1,6]pyrido[3,4-b]indol-2(3H, 5H, 6H)-yl)ethyl)piperazin-1-ium chloride]
IC50 (human autotaxin): < 500 nM

CCCn1cc(-n2c(Cl)c(Sc3cccc(C(=O)O)n3)c3ccc(Cl)c(F)c32)cn1 [Compound F, 6-((2,6-dichloro-7-fluoro-1-(1-propyl-1H-pyrazol-4-yl)-1H-indol-3-yl)thio)picolinic acid]
IC50 (human autotaxin): < 500 nM

CCn1cc(-n2c(Cl)c(Sc3cccc(CC(=O)O)c3F)c3ccc(Cl)c(F)c32)cn1 [Compound I, 2-(3-((2,6-dichloro-1-(1-ethyl-1H-pyrazol-4-yl)-7-fluoro-1H-indol-3-yl)thio)-2-fluorophenyl)acetic acid]
IC50 (human autotaxin): < 500 nM
